From ChEMBL document CHEMBL4613209, “Quinolone hybrids and their anti-cancer activities: An overview” (Eur J Med Chem, 2019)

What follows are molecules tested on L1210 (assay: Antiproliferative activity against mouse L1210 cells after 24 to 72 hrs by MTT assay).
Type: functional, cell-based

Structure (SMILES)	IC50 [µM]
CCn1cc(-c2nnc(SCC(=O)N/N=C/c3ccc(C(=O)O)cc3)o2)c(=O)c2cc(F)c(N3CCN(C)CC3)cc21	1.4 to 52.3
CCn1cc(-c2nnc(SCC(=O)N/N=C/c3ccc(C#N)cc3)o2)c(=O)c2cc(F)c(N3CCN(C)CC3)cc21	1.4 to 52.3
CCn1cc(-c2nnc(SCC(=O)N/N=C/c3ccccc3)o2)c(=O)c2cc(F)c(N3CCN(C)CC3)cc21	1.4 to 52.3
CC1COc2c(N3CCN(C)CC3)c(F)cc3c(=O)c(-c4nnc(N/N=C/c5ccc([N+](=O)[O-])c6c5OCO6)[nH]4)cn1c23 (stereo unspecified)	1.4 to 52.3
CCn1cc(-c2nnc(SCC(=O)N/N=C/c3ccc([N+](=O)[O-])cc3)o2)c(=O)c2cc(F)c(N3CCN(C)CC3)cc21	1.4 to 52.3
COc1cc(/C=N/Nc2nnc(-c3cn4c5c(c(N6CCN(C)CC6)c(F)cc5c3=O)OCC4C)[nH]2)cc(OC)c1OC (stereo unspecified)	1.4 to 52.3
CCn1cc(-c2nnc(SCC(=O)N/N=C/c3ccc(OC)cc3)o2)c(=O)c2cc(F)c(N3CCN(C)CC3)cc21	1.4 to 52.3
CCn1cc(-c2nnc(SCC(=O)N/N=C/c3cccc([N+](=O)[O-])c3)o2)c(=O)c2cc(F)c(N3CCN(C)CC3)cc21	1.4 to 52.3
CCn1cc(-c2nnc(SCC(=O)N/N=C/c3cc(OC)c(OC)c(OC)c3)o2)c(=O)c2cc(F)c(N3CCN(C)CC3)cc21	1.4 to 52.3
CCn1cc(C(=O)N/N=C/c2ccc(F)cc2)c(=O)c2cc(F)c(N3CCNCC3)cc21	1.4 to 52.3
CC1COc2c(N3CCN(C)CC3)c(F)cc3c(=O)c(-c4nnc(SCC(=O)N/N=C/c5ccc([N+](=O)[O-])c6c5OCO6)[nH]4)cn1c23 (stereo unspecified)	1.4 to 52.3

Results, then the molecule that gave them:

IC50 [µM]	Structure (SMILES)
1.4 to 52.3	COc1ccc(/C=N/NC(=O)CSc2nnc(-c3cn4c5c(c(N6CCN(C)CC6)c(F)cc5c3=O)OCC4C)[nH]2)cc1 (stereo unspecified)
1.4 to 52.3	CC1COc2c(N3CCN(C)CC3)c(F)cc3c(=O)c(-c4nnc(SCC(=O)N/N=C/c5ccc(C(=O)O)cc5)[nH]4)cn1c23 (stereo unspecified)
1.4 to 52.3	COc1ccc(/C=N/Nc2nnc(-c3cn4c5c(c(N6CCN(C)CC6)c(F)cc5c3=O)OCC4C)[nH]2)cc1 (stereo unspecified)
1.4 to 52.3	CCn1cc(C(=O)N/N=C/c2ccccc2O)c(=O)c2cc(F)c(N3CCNCC3)cc21
1.4 to 52.3	CCn1cc(-c2nnc(SCC(=O)N/N=C/c3ccc(O)c(OC)c3)o2)c(=O)c2cc(F)c(N3CCN(C)CC3)cc21
1.4 to 52.3	CCn1cc(-c2nnc(SCC(=O)N/N=C/c3ccccc3O)o2)c(=O)c2cc(F)c(N3CCN(C)CC3)cc21
1.4 to 52.3	CCn1cc(C(=O)N/N=C/c2ccc(O)c(OC)c2)c(=O)c2cc(F)c(N3CCNCC3)cc21
1.4 to 52.3	CCn1cc(-c2nnc(SCC(=O)N/N=C/c3ccc(F)cc3)o2)c(=O)c2cc(F)c(N3CCN(C)CC3)cc21

These molecules were tested on Hep 3B2 (assay: Antiproliferative activity against human Hep3B cells after 24 to 72 hrs by MTT assay).
Type: functional, cell-based

Structure (SMILES)	IC50 [µM]
COc1ccc(/C=N/NC(=O)CSc2nnc(-c3cn4c5c(c(N6CCN(C)CC6)c(F)cc5c3=O)OCC4C)[nH]2)cc1 (stereo unspecified)	1.4 to 52.3
CC1COc2c(N3CCN(C)CC3)c(F)cc3c(=O)c(-c4nnc(SCC(=O)N/N=C/c5ccc(C(=O)O)cc5)[nH]4)cn1c23 (stereo unspecified)	1.4 to 52.3
COc1ccc(/C=N/Nc2nnc(-c3cn4c5c(c(N6CCN(C)CC6)c(F)cc5c3=O)OCC4C)[nH]2)cc1 (stereo unspecified)	1.4 to 52.3
CCn1cc(C(=O)N/N=C/c2ccccc2O)c(=O)c2cc(F)c(N3CCNCC3)cc21	1.4 to 52.3
CCn1cc(-c2nnc(SCC(=O)N/N=C/c3ccc(O)c(OC)c3)o2)c(=O)c2cc(F)c(N3CCN(C)CC3)cc21	1.4 to 52.3
CCn1cc(-c2nnc(SCC(=O)N/N=C/c3ccccc3O)o2)c(=O)c2cc(F)c(N3CCN(C)CC3)cc21	1.4 to 52.3
CCn1cc(C(=O)N/N=C/c2ccc(O)c(OC)c2)c(=O)c2cc(F)c(N3CCNCC3)cc21	1.4 to 52.3
CCn1cc(-c2nnc(SCC(=O)N/N=C/c3ccc(F)cc3)o2)c(=O)c2cc(F)c(N3CCN(C)CC3)cc21	1.4 to 52.3
CCn1cc(-c2nnc(SCC(=O)N/N=C/c3ccc(C(=O)O)cc3)o2)c(=O)c2cc(F)c(N3CCN(C)CC3)cc21	1.4 to 52.3
CCn1cc(-c2nnc(SCC(=O)N/N=C/c3ccc(C#N)cc3)o2)c(=O)c2cc(F)c(N3CCN(C)CC3)cc21	1.4 to 52.3
CCn1cc(-c2nnc(SCC(=O)N/N=C/c3ccccc3)o2)c(=O)c2cc(F)c(N3CCN(C)CC3)cc21	1.4 to 52.3
CC1COc2c(N3CCN(C)CC3)c(F)cc3c(=O)c(-c4nnc(N/N=C/c5ccc([N+](=O)[O-])c6c5OCO6)[nH]4)cn1c23 (stereo unspecified)	1.4 to 52.3
CCn1cc(-c2nnc(SCC(=O)N/N=C/c3ccc([N+](=O)[O-])cc3)o2)c(=O)c2cc(F)c(N3CCN(C)CC3)cc21	1.4 to 52.3
COc1cc(/C=N/Nc2nnc(-c3cn4c5c(c(N6CCN(C)CC6)c(F)cc5c3=O)OCC4C)[nH]2)cc(OC)c1OC (stereo unspecified)	1.4 to 52.3
CCn1cc(-c2nnc(SCC(=O)N/N=C/c3ccc(OC)cc3)o2)c(=O)c2cc(F)c(N3CCN(C)CC3)cc21	1.4 to 52.3
CCn1cc(-c2nnc(SCC(=O)N/N=C/c3cccc([N+](=O)[O-])c3)o2)c(=O)c2cc(F)c(N3CCN(C)CC3)cc21	1.4 to 52.3
CCn1cc(-c2nnc(SCC(=O)N/N=C/c3cc(OC)c(OC)c(OC)c3)o2)c(=O)c2cc(F)c(N3CCN(C)CC3)cc21	1.4 to 52.3
CCn1cc(C(=O)N/N=C/c2ccc(F)cc2)c(=O)c2cc(F)c(N3CCNCC3)cc21	1.4 to 52.3
CC1COc2c(N3CCN(C)CC3)c(F)cc3c(=O)c(-c4nnc(SCC(=O)N/N=C/c5ccc([N+](=O)[O-])c6c5OCO6)[nH]4)cn1c23 (stereo unspecified)	1.4 to 52.3

Each molecule was assayed on SMMC-7721 (assay: Antiproliferative activity against human SMMC7721 cells after 24 to 72 hrs by MTT assay).
Type: functional, cell-based

Structure (SMILES)	IC50 [µM]
CCn1cc(-c2nnc(SCC(=O)N/N=C/c3ccc(C(=O)O)cc3)o2)c(=O)c2cc(F)c(N3CCN(C)CC3)cc21	1.4 to 52.3
CCn1cc(-c2nnc(SCC(=O)N/N=C/c3ccc(C#N)cc3)o2)c(=O)c2cc(F)c(N3CCN(C)CC3)cc21	1.4 to 52.3
CCn1cc(-c2nnc(SCC(=O)N/N=C/c3ccccc3)o2)c(=O)c2cc(F)c(N3CCN(C)CC3)cc21	1.4 to 52.3
CC1COc2c(N3CCN(C)CC3)c(F)cc3c(=O)c(-c4nnc(N/N=C/c5ccc([N+](=O)[O-])c6c5OCO6)[nH]4)cn1c23 (stereo unspecified)	1.4 to 52.3
CCn1cc(-c2nnc(SCC(=O)N/N=C/c3ccc([N+](=O)[O-])cc3)o2)c(=O)c2cc(F)c(N3CCN(C)CC3)cc21	1.4 to 52.3
COc1cc(/C=N/Nc2nnc(-c3cn4c5c(c(N6CCN(C)CC6)c(F)cc5c3=O)OCC4C)[nH]2)cc(OC)c1OC (stereo unspecified)	1.4 to 52.3
CCn1cc(-c2nnc(SCC(=O)N/N=C/c3ccc(OC)cc3)o2)c(=O)c2cc(F)c(N3CCN(C)CC3)cc21	1.4 to 52.3
CCn1cc(-c2nnc(SCC(=O)N/N=C/c3cccc([N+](=O)[O-])c3)o2)c(=O)c2cc(F)c(N3CCN(C)CC3)cc21	1.4 to 52.3
CCn1cc(-c2nnc(SCC(=O)N/N=C/c3cc(OC)c(OC)c(OC)c3)o2)c(=O)c2cc(F)c(N3CCN(C)CC3)cc21	1.4 to 52.3
CCn1cc(C(=O)N/N=C/c2ccc(F)cc2)c(=O)c2cc(F)c(N3CCNCC3)cc21	1.4 to 52.3
CC1COc2c(N3CCN(C)CC3)c(F)cc3c(=O)c(-c4nnc(SCC(=O)N/N=C/c5ccc([N+](=O)[O-])c6c5OCO6)[nH]4)cn1c23 (stereo unspecified)	1.4 to 52.3

Further lines, results first:

IC50 [µM]	Structure (SMILES)
1.4 to 52.3	COc1ccc(/C=N/NC(=O)CSc2nnc(-c3cn4c5c(c(N6CCN(C)CC6)c(F)cc5c3=O)OCC4C)[nH]2)cc1 (stereo unspecified)
1.4 to 52.3	CC1COc2c(N3CCN(C)CC3)c(F)cc3c(=O)c(-c4nnc(SCC(=O)N/N=C/c5ccc(C(=O)O)cc5)[nH]4)cn1c23 (stereo unspecified)
1.4 to 52.3	COc1ccc(/C=N/Nc2nnc(-c3cn4c5c(c(N6CCN(C)CC6)c(F)cc5c3=O)OCC4C)[nH]2)cc1 (stereo unspecified)
1.4 to 52.3	CCn1cc(C(=O)N/N=C/c2ccccc2O)c(=O)c2cc(F)c(N3CCNCC3)cc21
1.4 to 52.3	CCn1cc(-c2nnc(SCC(=O)N/N=C/c3ccc(O)c(OC)c3)o2)c(=O)c2cc(F)c(N3CCN(C)CC3)cc21
1.4 to 52.3	CCn1cc(-c2nnc(SCC(=O)N/N=C/c3ccccc3O)o2)c(=O)c2cc(F)c(N3CCN(C)CC3)cc21
1.4 to 52.3	CCn1cc(C(=O)N/N=C/c2ccc(O)c(OC)c2)c(=O)c2cc(F)c(N3CCNCC3)cc21
1.4 to 52.3	CCn1cc(-c2nnc(SCC(=O)N/N=C/c3ccc(F)cc3)o2)c(=O)c2cc(F)c(N3CCN(C)CC3)cc21

The molecules below were run on HL-60 (assay: Antiproliferative activity against human HL60 cells after 24 to 72 hrs by MTT assay).
Type: functional, cell-based

Structure (SMILES)	IC50 [µM]
CCn1cc(-c2nnc(SCC(=O)N/N=C/c3ccc(C(=O)O)cc3)o2)c(=O)c2cc(F)c(N3CCN(C)CC3)cc21	1.4 to 52.3
CCn1cc(-c2nnc(SCC(=O)N/N=C/c3ccc(C#N)cc3)o2)c(=O)c2cc(F)c(N3CCN(C)CC3)cc21	1.4 to 52.3
CCn1cc(-c2nnc(SCC(=O)N/N=C/c3ccccc3)o2)c(=O)c2cc(F)c(N3CCN(C)CC3)cc21	1.4 to 52.3
CC1COc2c(N3CCN(C)CC3)c(F)cc3c(=O)c(-c4nnc(N/N=C/c5ccc([N+](=O)[O-])c6c5OCO6)[nH]4)cn1c23 (stereo unspecified)	1.4 to 52.3
CCn1cc(-c2nnc(SCC(=O)N/N=C/c3ccc([N+](=O)[O-])cc3)o2)c(=O)c2cc(F)c(N3CCN(C)CC3)cc21	1.4 to 52.3
COc1cc(/C=N/Nc2nnc(-c3cn4c5c(c(N6CCN(C)CC6)c(F)cc5c3=O)OCC4C)[nH]2)cc(OC)c1OC (stereo unspecified)	1.4 to 52.3
CCn1cc(-c2nnc(SCC(=O)N/N=C/c3ccc(OC)cc3)o2)c(=O)c2cc(F)c(N3CCN(C)CC3)cc21	1.4 to 52.3
CCn1cc(-c2nnc(SCC(=O)N/N=C/c3cccc([N+](=O)[O-])c3)o2)c(=O)c2cc(F)c(N3CCN(C)CC3)cc21	1.4 to 52.3
CCn1cc(-c2nnc(SCC(=O)N/N=C/c3cc(OC)c(OC)c(OC)c3)o2)c(=O)c2cc(F)c(N3CCN(C)CC3)cc21	1.4 to 52.3
CCn1cc(C(=O)N/N=C/c2ccc(F)cc2)c(=O)c2cc(F)c(N3CCNCC3)cc21	1.4 to 52.3
CC1COc2c(N3CCN(C)CC3)c(F)cc3c(=O)c(-c4nnc(SCC(=O)N/N=C/c5ccc([N+](=O)[O-])c6c5OCO6)[nH]4)cn1c23 (stereo unspecified)	1.4 to 52.3

Next, values leading:

IC50 [µM]	Structure (SMILES)
1.4 to 52.3	COc1ccc(/C=N/NC(=O)CSc2nnc(-c3cn4c5c(c(N6CCN(C)CC6)c(F)cc5c3=O)OCC4C)[nH]2)cc1 (stereo unspecified)
1.4 to 52.3	CC1COc2c(N3CCN(C)CC3)c(F)cc3c(=O)c(-c4nnc(SCC(=O)N/N=C/c5ccc(C(=O)O)cc5)[nH]4)cn1c23 (stereo unspecified)
1.4 to 52.3	COc1ccc(/C=N/Nc2nnc(-c3cn4c5c(c(N6CCN(C)CC6)c(F)cc5c3=O)OCC4C)[nH]2)cc1 (stereo unspecified)
1.4 to 52.3	CCn1cc(C(=O)N/N=C/c2ccccc2O)c(=O)c2cc(F)c(N3CCNCC3)cc21
1.4 to 52.3	CCn1cc(-c2nnc(SCC(=O)N/N=C/c3ccc(O)c(OC)c3)o2)c(=O)c2cc(F)c(N3CCN(C)CC3)cc21
1.4 to 52.3	CCn1cc(-c2nnc(SCC(=O)N/N=C/c3ccccc3O)o2)c(=O)c2cc(F)c(N3CCN(C)CC3)cc21
1.4 to 52.3	CCn1cc(C(=O)N/N=C/c2ccc(O)c(OC)c2)c(=O)c2cc(F)c(N3CCNCC3)cc21
1.4 to 52.3	CCn1cc(-c2nnc(SCC(=O)N/N=C/c3ccc(F)cc3)o2)c(=O)c2cc(F)c(N3CCN(C)CC3)cc21
